Measured values published in US10214492B2, “Heterocyclic inhibitors of MCT4” (Vettore, LLC, priority 2016, dated 2019).

Columns and labels:
[1] = target: MCT4 (Homo sapiens (Human), UniProt O15427); test: Assay 3: MCT4-mediated lactate transport in MDA-MB-231 breast cancer cells; type: cell-based; settings: MDA-MB-231 cells; lactate transport
Experimental: (§1) 10 μL of a 30 mM DMSO stock of BCECF-AM ester (Life Technologies) is added and the cells are incubated at 37° C. for 5 min. The cells are pelleted (300 g, 5 min), washed once with 1 mL Tyrode's Solution, pH 7.4, re-pelleted (300 g, 5 min), and resuspended in 1 mL Tyrode's Solution, pH 7.4.
MCT4 activity may be assessed by monitoring the intracellular pH change that accompanies lactate/proton symport, using the pH-sensitive fluorescent dye 2′,7′-bis-(carboxyethyl)-5(6)-carboxyfluorescein (BCECF), in a manner similar to that previously reported for MCT1 and MCT4. The following is an exemplary procedure for assaying MCT4 activity of the compounds of Formula (I).

[2] = target: MCT1 (Homo sapiens (Human), UniProt P53985); test: Assay 4: MCT1-mediated lactate transport in BT20 breast cancer cells; type: cell-based; settings: Table 27
MCT1, sequence (P53985 whole entry): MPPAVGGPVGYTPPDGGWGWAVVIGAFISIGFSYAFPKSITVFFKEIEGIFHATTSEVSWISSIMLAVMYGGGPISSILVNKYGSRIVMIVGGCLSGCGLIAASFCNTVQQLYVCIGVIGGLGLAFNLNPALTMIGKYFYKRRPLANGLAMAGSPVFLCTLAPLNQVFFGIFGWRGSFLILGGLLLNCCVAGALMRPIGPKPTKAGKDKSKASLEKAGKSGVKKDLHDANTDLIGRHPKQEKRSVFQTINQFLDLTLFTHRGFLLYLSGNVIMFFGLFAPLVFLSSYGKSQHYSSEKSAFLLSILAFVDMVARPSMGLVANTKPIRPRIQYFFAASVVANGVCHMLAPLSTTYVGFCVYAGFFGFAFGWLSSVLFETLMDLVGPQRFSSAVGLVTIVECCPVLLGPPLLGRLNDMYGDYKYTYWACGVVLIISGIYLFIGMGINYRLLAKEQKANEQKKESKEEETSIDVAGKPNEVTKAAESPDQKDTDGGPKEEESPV
MCT1, sequence (P35613 140-385 partner): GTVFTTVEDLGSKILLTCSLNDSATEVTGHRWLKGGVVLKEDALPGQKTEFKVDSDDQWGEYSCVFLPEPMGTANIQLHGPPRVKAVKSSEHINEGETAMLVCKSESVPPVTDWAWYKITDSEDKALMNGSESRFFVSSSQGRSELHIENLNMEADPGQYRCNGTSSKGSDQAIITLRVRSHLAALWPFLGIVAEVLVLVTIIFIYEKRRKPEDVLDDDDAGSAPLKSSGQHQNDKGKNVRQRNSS
Experimental: as §1
Assay 4: MCT1-Mediated Lactate Transport in BT20 Breast Cancer Cells.
Preparation of BCECF loaded cells are as described for Assay 1. Lactate transport assay is as described for Assay 1, except 10 mM L-lactate (rather than 50 mM) is added.

MCT4, sequence (O15427 whole entry, looked up): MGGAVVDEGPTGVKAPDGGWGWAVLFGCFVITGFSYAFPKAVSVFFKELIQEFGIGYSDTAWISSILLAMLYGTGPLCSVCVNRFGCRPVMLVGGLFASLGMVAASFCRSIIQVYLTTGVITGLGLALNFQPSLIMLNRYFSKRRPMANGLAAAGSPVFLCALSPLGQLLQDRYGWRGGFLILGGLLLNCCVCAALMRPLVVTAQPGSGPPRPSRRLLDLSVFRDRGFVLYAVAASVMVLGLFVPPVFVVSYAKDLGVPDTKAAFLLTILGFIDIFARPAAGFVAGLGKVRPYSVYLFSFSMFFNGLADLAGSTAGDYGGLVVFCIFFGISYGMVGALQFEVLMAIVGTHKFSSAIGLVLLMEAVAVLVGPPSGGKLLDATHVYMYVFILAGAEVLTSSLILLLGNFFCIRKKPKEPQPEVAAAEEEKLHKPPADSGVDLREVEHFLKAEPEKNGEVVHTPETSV
MCT4, sequence (P35613 whole entry partner, looked up): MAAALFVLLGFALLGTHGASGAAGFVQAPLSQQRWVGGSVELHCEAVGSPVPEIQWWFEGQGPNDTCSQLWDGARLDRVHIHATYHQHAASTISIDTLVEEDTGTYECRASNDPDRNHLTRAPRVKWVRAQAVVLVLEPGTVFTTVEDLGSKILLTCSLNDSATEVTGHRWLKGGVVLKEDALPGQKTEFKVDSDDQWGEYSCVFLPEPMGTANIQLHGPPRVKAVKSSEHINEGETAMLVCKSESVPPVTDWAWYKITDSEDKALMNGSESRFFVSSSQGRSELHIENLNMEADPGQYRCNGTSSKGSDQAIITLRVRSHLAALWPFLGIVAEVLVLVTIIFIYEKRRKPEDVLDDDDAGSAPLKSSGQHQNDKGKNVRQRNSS

| IC50 [1] [nM] | IC50 [2] [nM] | Compound |
| --- | --- | --- |
| 2.6 | 28000 | CC(C)COc1cccc(-c2cc(COC(C)(C)C(=O)O)nn2-c2ccccc2N(C)C)c1 [Example 103, 2-([1-[2-(Dimethylamino)phenyl]-5-[3-(2-methylpropoxy)phenyl]-1H-pyrazol-3-yl]methoxy)-2-methylpropanoic acid] |
| 185 | 93000 | CC(C)(OCc1cc(-c2ccc3c(c2)OCCO3)n(Cc2ccccc2Cl)n1)C(=O)O [Example 203, 2-([1-[(2-Chlorophenyl)methyl]-5-(2,3-dihydro-1,4-benzodioxin-6-yl)-1H-pyrazol-3-yl]methoxy)-2-methylpropanoic acid] |
| 39 | > 100000 | COc1cc(OC)cc(-c2cc(COC(C)(C)C(=O)O)nn2-c2cccc3cnn(C)c23)c1 [Example 249, 2-([5-(3,5-Dimethoxyphenyl)-1-(1-methyl-1H-indazol-7-yl)-1H-pyrazol-3-yl]methoxy)-2-methylpropanoic acid] |
| 1.9 | 17000 | CCOc1cc(OC)cc(-c2cc(COC(C)(C)C(=O)O)nn2Cc2ccccc2OCC)c1 [Example 200, 2-([5-(3-Ethoxy-5-methoxyphenyl)-1-[(2-ethoxyphenyl)methyl]-1H-pyrazol-3-yl]-methoxy)-2-methylpropanoic acid] |
| 53 | 220 | COc1cccc(OC)c1Cn1nc(COC(C)(C)C(=O)O)cc1-c1cccc(OCC(C)C)c1 [Example 135, 2-([1-[(2,6-Dimethoxyphenyl)methyl]-5-[3-(2-methylpropoxy)phenyl] 1H-pyrazol-3-yl]methoxy)-2-methylpropanoic acid] |
| 170 | 9900 | CC(C)COc1cccc(-c2cc(COC(C)(C)C(=O)O)nn2Cc2ccc(N(C)C)cc2)c1 [Example 107, 2-[(1-[[4-(Dimethylamino)phenyl]methyl]-5-[3-(2-methylpropoxy)phenyl]-1H-pyrazol-3-yl)methoxy)-2-methylpropanoic acid] |
| 580 | > 100000 | CC(C)(OCc1cc(-c2cccc(OCC3COC3)c2)n(-c2ccccc2F)n1)C(=O)O [Example 158, 2-([1-(2-Fluorophenyl)-5-[3-(oxetan-3-yl-methoxy)phenyl]-1H-pyrazol-3-yl]-methoxy)-2-methylpropanoic acid] |
| 1400 | > 100000 | COc1cccc(-c2cc(COC(C)(C)C(=O)O)nn2CC(C)C)c1 [Example 137, 2-([5-(3-Methoxyphenyl)-1-(2-methylpropyl)-1H-pyrazol-3-yl]methoxy)-2-methylpropanoic acid] |
| 12 | 27000 | Cn1nnc2cccc(-n3nc(COC(C)(C)C(=O)O)cc3-c3cccc(OCC(C)(C)C)c3)c21 [Example 258, 2-([5-[3-(2,2-Dimethylpropoxy)phenyl]-1-(1-methyl-1H-1,2,3-benzotriazol-7-yl)-1H-pyrazol-3-yl)methoxy)-2-methylpropanoic acid] |
| 160 | > 100000 | CC(C)(OCc1cc(-c2cccc(OC3CC3)c2)n(-c2ccccc2N2CC[C@@H](O)C2)n1)C(=O)O [Example 237, 2-([5-(3-Cyclopropoxyphenyl)-1-[2-[(3R)-3-hydroxypyrrolidin-1-yl]phenyl]-1H-pyrazol-3-yl]methoxy)-2-methylpropanoic acid] |
|  | 8500 | COc1cc(OC)cc(-c2cc(COC(C)(C)C(=O)O)nn2-c2cccc(Cl)c2)c1 [Example 241, 2-([5-(3,5-Dimethoxyphenyl)-1-(3-chlorophenyl)-1H-pyrazol-3-yl]methoxy)-2-methylpropanoic acid] |
| 360 | > 100000 | COc1cccc(-c2cc(COC(C)(C)C(=O)O)nn2-c2ccccc2OC(C)C)c1 [Example 215, 2-([5-(3-Methoxyphenyl)-1-[2-(propan-2-yloxy)phenyl]-l//-pyrazol-3-yl]mcthoxy)-2-methylpropanoic acid] |
| 36 | 5200 | CC(C)COc1cccc(-c2cc(COC(C)(C)C(=O)O)nn2Cc2cccc(N(C)C)c2)c1 [Example 108, 2-[(1-[[3-(Dimethylamino)phenyl]-methyl]-5-[3-(2-methylpropoxy)phenyl]-1H-pyrazol-3-yl)methoxy)-2-methylpropanoic acid] |
|  | 50000 | COc1cccc(-c2cc(COC(C)(C)C(=O)O)nn2-c2ccccc2C)c1 [Example 118, 2-([5-(3-methoxyphenyl)-1-(2-methylphenyl)-1H-pyrazol-3-yl]methoxy)-2-methylpropanoic acid] |
| 7.5 | 17000 | CCOc1cc(OCC)cc(-c2cc(COC(C)(C)C(=O)O)nn2Cc2ccccc2OCC)c1 [Example 208, 2-([5-(3,5-Diethoxyphenyl)-1-[(2-ethoxy-phenyl)methyl]-1H-pyrazol-3-yl]methoxy)-2-methylpropanoic acid] |
| 3500 | > 100000 | Cn1cnc2cccc(-n3nc(COC(C)(C)C(=O)O)cc3-c3cccc(OC4CC4)c3)c21 [Example 194, 2-([5-(3-Cyclopropoxyphenyl)-1-(1-methyl-1H-1,3-benzodiazol-7-yl)-1H-pyrazol-3-yl]-methoxy)-2-methylpropanoic acid] |
| 7.6 | 15000 | Cc1ccccc1-n1nc(COC(C)(C)C(=O)O)cc1-c1cccc(OCC(C)C)c1 [Example 105, 2-Methyl-2-([1-(2-methylphenyl)-5-[3-(2-methylpropoxy)phenyl]-1H-pyrazol-3-yl]methoxy]propanoic acid] |
|  | 7300 | Cc1nn(C)c2c(-n3nc(COC(C)(C)C(=O)O)cc3-c3cccc(OCC(C)(C)C)c3)cccc12 [Example 255] |
| 40 | > 100000 | CC(C)(OCc1cc(-c2ccc3c(c2)OCO3)n(Cc2ccccc2Cl)n1)C(=O)O [Example 204, [[5-(2H-1,3-Benzodioxol-5-yl)-1-[(2-chloro-phenyl)methyl]-1H-pyrazol-3-yl]methoxy)-2-methylpropanoic acid] |
| 2.6 | 17000 | Cn1ncc2cccc(Cn3nc(COC(C)(C)C(=O)O)cc3-c3cccc(OCC(C)(C)C)c3)c21 [Example 256, 2-([5-[3-(2,2-Dimethylpropoxy)phenyl]-1-[(1-methyl-1H-indazol-7-yl)methyl]-1H-pyrazol-3-yl]methoxy)-2-methylpropanoic acid] |
| 960 | 70000 | CC(C)(OCc1cc(-c2cccc(OC3CC3)c2)n(-c2ccccc2N2CCOCC2)n1)C(=O)O [Example 234, 2-([5-(3-Cyclopropoxyphenyl)-1-[2-(morpholin-4-yl)phenyl]-1H-pyrazol-3-yl]-methoxy)-2-methylpropanoic acid] |
| 5900 |  | COc1cccc(-c2cc(CO[C@H](C)C(=O)O)nn2Cc2ccccc2Cl)c1 [Example 125, (2R)-2-([1-[(2-Chlorophenyl)methyl]-5-(3-methoxyphenyl)-1H-pyrazol-3-yl]methoxy)-propanoic acid] |
|  | > 100000 | COc1cccc(-c2cc(COC(C)(C)C(=O)O)nn2-c2ccccc2F)c1 [Example 117, 2-([1-(2-Fluorophenyl)-5-(3-methoxyphenyl)-1H-pyrazol-3-yl]methoxy)-2-methylpropanoic acid] |
|  | > 100000 | Cn1cnc2ccc(-c3cc(COC(C)(C)C(=O)O)nn3Cc3ccccc3Cl)cc21 [Example 248, 2-([1-[(2-Chlorophenyl)methyl]-5-(1-methyl-1H-1,3-benzodiazol-6-yl)-1H-pyrazol-3-yl]methoxy)-2-methylpropanoic acid] |
|  | > 100000 | COc1cccc(-c2cc(COC(C)(C)C(=O)O)nn2-c2cccnc2)c1 [Example 115, 2-([5-(3-Methoxyphenyl)-1-(pyridin-3-yl)-1H-pyrazol-3-yl]methoxy)-2-methylpropanoic acid] |
|  | > 33000 | COc1cccc(-c2cc(COC(C)(C)C(=O)O)nn2Cc2c(F)cccc2N(C)C)c1 [Example 136, 2-[(1-[(2-(Dimethylamino)-6-fluoro-phenyl]methyl]-5-(3-methoxyphenyl)-1H-pyrazol-3-yl)methoxy)-2-methylpropanoic acid] |
|  | 57000 | COc1cc(OC)cc(-c2cc(COC(C)(C)C(=O)O)nn2-c2cccc(OC)c2)c1 [Example 242, 2-([5-(3,5-Dimethoxyphenyl)-1-(3-methoxyphenyl)-1H-pyrazol-3-yl]methoxy)-2-methylpropanoic acid] |
|  | 65000 | COc1cccc(-c2cc(COC(C)(C)C(=O)O)nn2-c2ccccc2OC)c1 [Example 119, 22-([1-(2-Methoxyphenyl)-5-(3-methoxyphenyl)-1H-pyrazol-3-yl]methoxy)-2-methylpropanoic acid] |

| Compound | IC50 [1] [nM] | IC50 [2] [nM] |
| --- | --- | --- |
| 2-((1-[(2-Chlorophenyl)methyl]-5-(4-cyclopropoxythien-2-yl)-1H-pyrazol-3-yl(methoxy)-2-methylpropanoic acid [Example 130] | 98 | 55 |
| CC(C)(OCc1cc(-c2cccc(OC3CCC3)c2)n(-c2ccccc2F)n1)C(=O)O [Example 159, 2-([5-(3-Cyclobutoxyphenyl)-1-(2-fluoro-phenyl)-1H-pyrazol-3-yl]methoxy)-2-methylpropanoic acid] | 11 | > 100000 |
| CC(C)(OCc1cc(-c2cccc(OC3CCC3)c2)n(Cc2ccccc2N2CCCC2)n1)C(=O)O [Example 238, 2-([5-(3-Cyclobutoxyphenyl)-1-[[2-(pyrrolidin-1-yl)phenyl]methyl]-1H-pyrazol-3-yl]methoxy)-2-methylpropanoic acid] | 3.7 | 21000 |
